Tested on: T1, catechol 1,2-dioxygenase (C12O) from PcUFB2; identified by ES-MS as homogentisate 1,2-dioxygenase (H12D)
T1 construct: gene hmgA; native purification from UFB2 cells grown on phenol (ANX anion exchange, Sephacryl HR100); 35 kDa on SDS-PAGE
Assay: UV spectrophotometry, cis,cis-muconic acid at […] nm; Lineweaver-Burk / Michaelis-Menten fit
Assay type: biochemical, Pseudomonas chlororaphis
Conditions: 50 mM sodium phosphate pH 8, 30 °C, 30 min, 0-500 µM catechol

Oc1ccccc1O [catechol]
Km: 35.8 µM

Reference: publication PMC6337169, “Catechol 1,2-Dioxygenase is an Analogue of Homogentisate 1,2-Dioxygenase in Pseudomonas chlororaphis Strain UFB2” (International Journal of Molecular Sciences, 2018)
